We go through 23 molecules from patent US10508085B2, “Compounds and methods for IDO and TDO modulation, and indications therefor” (Plexxikon Inc., priority 2016, dated 2019).

For experiment [1], the target named is T1, Human Indoleamine 2,3-dioxygenase (IDO) (Homo sapiens, UniProt P14902).
T1 construct: His tag (N); made in house; host or cells: E. coli
Description: Human IDO enzymatic assay (kynurenine level). Conditions: 6 nM IDO, 10 μM L-Trp; geometric mean; read-out: IDO1 GMean: IC50 (μM) (Biochemical Assay). It counts as biochemical. The method, boiled down:
(§1)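 Compound is mixed with His-tagged enzyme from E. coli in pH 6.5 phosphate buffer containing ascorbate, methylene blue and catalase, at room temperature. IDO uses 6 nM enzyme and 10 μM Trp for 20 min. TDO uses 1 nM enzyme and 350 μM Trp for 70 min. TCA stops the reaction, and IC50 is derived from kynurenine levels.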

For experiment [2], the target named is T2, Human Tryptophan 2,3-dioxygenase (TDO) (Homo sapiens, UniProt P48775).
T2 construct: His tag (N); made in house; host or cells: E. coli
The experiment is described as follows: Human TDO enzymatic assay (kynurenine level). Conditions: 1 nM TDO, 350 μM L-Trp; geometric mean; read-out: TDO GMean: IC50 (μM) (Biochemical Assay). It is filed as biochemical. The method, boiled down:
as §1

Experiment [3] has as its target T3, human TDO (TDO-expressing HEK293 cells) (Homo sapiens, UniProt P48775).
T3 construct: expressed in transfected cells
The experiment is described as follows: Cell based kynurenine assay, TDO-expressing HEK293 cell clones. Conditions: TDO-expressing HEK293 cells, 24 hours incubation; geometric mean; read-out: HEK293 TDO Kynurenine GMean IC50 (μM) (Cellular Assay). The method, boiled down:
(§2)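 Cellular IDO1 and TDO activity is followed as kynurenine released by stably transfected HEK293 clones over 24 h with test compound. Controls are DMSO-treated cells and media alone.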

Experiment [4] addresses T4, human IDO (IDO1-expressing HEK293 cells) (Homo sapiens, UniProt P14902).
T4 construct: expressed in transfected cells
The experiment is described as follows: Cell based kynurenine assay, IDO1-expressing HEK293 cell clones. The settings on record: IDO1-expressing HEK293 cells, 24 hours incubation; geometric mean; read-out: HEK293 IDO1 Kynurenine GMean IC50 (μM) (Cellular Assay). The method, boiled down: as §2

T2 sequence (P48775 whole entry): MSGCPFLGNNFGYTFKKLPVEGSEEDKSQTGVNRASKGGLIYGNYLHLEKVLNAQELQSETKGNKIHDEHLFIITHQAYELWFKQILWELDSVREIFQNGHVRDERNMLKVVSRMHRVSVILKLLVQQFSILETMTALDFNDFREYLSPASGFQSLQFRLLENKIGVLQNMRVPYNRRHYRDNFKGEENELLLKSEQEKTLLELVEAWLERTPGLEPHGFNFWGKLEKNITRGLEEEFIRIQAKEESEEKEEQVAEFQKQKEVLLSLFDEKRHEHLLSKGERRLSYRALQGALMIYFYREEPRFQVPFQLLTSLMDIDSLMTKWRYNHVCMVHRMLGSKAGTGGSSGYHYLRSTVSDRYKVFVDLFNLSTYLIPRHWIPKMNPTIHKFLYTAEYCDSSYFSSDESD
T3 sequence (P48775 whole entry): as above
T4 sequence (P14902 whole entry): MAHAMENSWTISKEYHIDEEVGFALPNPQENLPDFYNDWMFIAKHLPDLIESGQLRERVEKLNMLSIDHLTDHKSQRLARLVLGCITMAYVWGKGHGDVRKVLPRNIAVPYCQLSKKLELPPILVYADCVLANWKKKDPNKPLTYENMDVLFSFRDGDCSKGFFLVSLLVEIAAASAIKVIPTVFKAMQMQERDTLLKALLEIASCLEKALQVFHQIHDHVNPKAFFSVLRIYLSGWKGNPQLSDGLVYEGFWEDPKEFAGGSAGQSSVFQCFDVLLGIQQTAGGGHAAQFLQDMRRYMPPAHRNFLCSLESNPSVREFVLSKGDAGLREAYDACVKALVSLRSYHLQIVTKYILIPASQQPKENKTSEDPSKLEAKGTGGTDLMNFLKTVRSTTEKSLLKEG
T1 sequence (P14902 whole entry): as above

The IC50 is the concentration needed to halve the response being measured. `CC(C)(C(O)c1c(F)c(Cl)cc2cn[nH]c12)[C@H]1C[C@H]2CC[C@@H](C1)N2S(C)(=O)=O` (stereo partly drawn) [Compound P-0285, 1-(5-chloro-6-fluoro-1H-indazol-7-yl)-2-methyl-2-((1R,3r,5S)-8-(methylsulfonyl)-8-azabicyclo[3.2.1]octan-3-yl)propan-1-ol]: the IC50 in experiment [1], in experiment [2], in experiment [3] and in experiment [4] was 0.0001 to 10 µM in each case.
On to `CC1(C(O)c2cc(Cl)cc3cn[nH]c23)CCN(S(C)(=O)=O)CC1` (centres unmarked) [Compound P-0286, (5-chloro-1H-indazol-7-yl)(4-methyl-1-(methylsulfonyl)piperidin-4-yl)methanol], for which the IC50 in experiment [1], in experiment [2], in experiment [3] and in experiment [4] was 0.0001 to 10 µM each time.
Turning to `CC1(C(O)c2c(Cl)c(Cl)cc3cn[nH]c23)CCCCC1` (centres unmarked) [Compound P-0287, (5,6-dichloro-1H-indazol-7-yl)(1-methylcyclohexyl)methanol], the IC50 in experiment [1] is 0.0001 to 10 µM; in experiment [2], 0.0001 to 10 µM; in experiment [3], over 10 µM; in experiment [4] it was 0.0001 to 10 µM.
On to `CS(=O)(=O)N1CCC(C(F)(F)C(O)c2c(F)c(Cl)cc3cn[nH]c23)CC1` (centres unmarked) [Compound P-0288, 1-(5-chloro-6-fluoro-1H-indazol-7-yl)-2,2-difluoro-2-(1-(methylsulfonyl)piperidin-4-yl)ethan-1-ol], for which the IC50 in experiment [1], in experiment [2], in experiment [3] and in experiment [4] was 0.0001 to 10 µM each time.
Turning to `OC(c1cc(Cl)cc2cn[nH]c12)C(F)(F)C1(O)CCC1` (centres unmarked) [Compound P-0289, 1-(2-(5-chloro-1H-indazol-7-yl)-1,1-difluoro-2-hydroxyethyl)cyclobutan-1-ol], the IC50 in experiment [1], in experiment [2], in experiment [3] and in experiment [4] was 0.0001 to 10 µM each time.
Regarding `OC(c1c(F)c(Cl)cc2cn[nH]c12)C(F)(F)C1(O)CCC1` (centres unmarked) [Compound P-0290, 1-(2-(5-chloro-6-fluoro-1H-indazol-7-yl)-1,1-difluoro-2-hydroxyethyl)cyclobutan-1-ol], the IC50 in experiment [1], in experiment [2], in experiment [3] and in experiment [4] was 0.0001 to 10 µM each time.
With `CC(C)S(=O)(=O)N1CC2CCC(C1)C2CC(O)c1cc(Cl)cc2cn[nH]c12` (centres unmarked) [Compound P-0291, 1-(5-chloro-1H-indazol-7-yl)-2-(3-(isopropylsulfonyl)-3-azabicyclo[3.2.1]octan-8-yl)ethan-1-ol], the IC50 in experiment [1], in experiment [2], in experiment [3] and in experiment [4] was 0.0001 to 10 µM throughout.
Take `CC1(C)CN(c2c3c(cc4cn[nH]c24)CC3)CCN1S(C)(=O)=O` [Compound P-0292, 7-(3,3-dimethyl-4-(methylsulfonyl)piperazin-1-yl)-5,6-dihydro-1H-cyclobuta[f]indazole]: the IC50 in experiment [1], in experiment [2], in experiment [3] and in experiment [4] was 0.0001 to 10 µM throughout.
For `OC(c1c2c(cc3cn[nH]c13)CC2)C1CC2CCC1C2` (centres unmarked) [Compound P-0293, bicyclo[2.2.1]heptan-2-yl(5,6-dihydro-1H-cyclobuta[f]indazol-7-yl)methanol], the IC50 in experiment [1], in experiment [2], in experiment [3] and in experiment [4] was 0.0001 to 10 µM each time.
Regarding `CC(=O)N1CCC(C(F)(F)C(O)c2cc(Cl)cc3cn[nH]c23)CC1` (centres unmarked) [Compound P-0295, 1-(4-(2-(5-chloro-1H-indazol-7-yl)-1,1-difluoro-2-hydroxyethyl)piperidin-1-yl)ethan-1-one], the IC50 in experiment [1], in experiment [2], in experiment [3] and in experiment [4] was 0.0001 to 10 µM each time.
As to `CS(=O)(=O)N1CCC(C(F)(F)C(O)c2c3c(cc4cn[nH]c24)CC3)CC1` (centres unmarked) [Compound P-0296, 1-(5,6-dihydro-1H-cyclobuta[f]indazol-7-yl)-2,2-difluoro-2-(1-(methylsulfonyl)piperidin-4-yl)ethan-1-ol], the IC50 in experiment [1] was 0.0001 to 10 µM; in experiment [2], 0.0001 to 10 µM; in experiment [3] it was over 10 µM; in experiment [4], 0.0001 to 10 µM.
In the case of `CC(C)(C1CCS(=O)(=O)CC1)C(O)c1cc(Cl)cc2cn[nH]c12` (centres unmarked) [Compound P-0297, 4-(1-(5-chloro-1H-indazol-7-yl)-1-hydroxy-2-methylpropan-2-yl)tetrahydro-2H-thiopyran 1,1-dioxide], the IC50 in experiment [1], in experiment [2], in experiment [3] and in experiment [4] was 0.0001 to 10 µM each time.
Consider `CC(C)(C1CCS(=O)(=O)CC1)C(O)c1c(F)c(Cl)cc2cn[nH]c12` (centres unmarked) [Compound P-0298, 4-(1-(5-chloro-6-fluoro-1H-indazol-7-yl)-1-hydroxy-2-methylpropan-2-yl)tetrahydro-2H-thiopyran 1,1-dioxide], for which the concentration for half-maximal inhibition (IC50) in experiment [1], in experiment [2], in experiment [3] and in experiment [4] was 0.0001 to 10 µM in each case.
As to `OC(c1c(F)c(Cl)cc2cn[nH]c12)C12CCC(F)(CC1)CC2` (centres unmarked) [Compound P-0299, (5-chloro-6-fluoro-1H-indazol-7-yl)(4-fluorobicyclo[2.2.2]octan-1-yl)methanol], the IC50 in experiment [1], in experiment [2], in experiment [3] and in experiment [4] was 0.0001 to 10 µM throughout.
In the case of `CC(=O)N1C2CCC1CC(C(C)(C)C(O)c1c(F)c(Cl)cc3cn[nH]c13)C2` (centres unmarked) [Compound P-0300], the IC50 in experiment [1], in experiment [2], in experiment [3] and in experiment [4] was 0.0001 to 10 µM each time.
`OC(c1c(F)c(Cl)cc2cn[nH]c12)C12CCC(C(F)(F)F)(CC1)CC2` (centres unmarked) [Compound P-0301, (5-chloro-6-fluoro-1H-indazol-7-yl)(4-(trifluoromethyl)bicyclo[2.2.2]octan-1-yl)methanol]: the IC50 in experiment [1], in experiment [2], in experiment [3] and in experiment [4] was 0.0001 to 10 µM throughout.
For the molecule `CC(=O)N1C[C@H]2CC[C@@H](C1)[C@H]2C(F)(F)C(O)c1cc(Cl)cc2cn[nH]c12` (stereo partly drawn) [Compound P-0302, 1-((1R,5S,8s)-8-(2-(5-chloro-1H-indazol-7-yl)-1,1-difluoro-2-hydroxyethyl)-3-azabicyclo[3.2.1]octan-3-yl)ethan-1-one], the IC50 in experiment [1], in experiment [2], in experiment [3] and in experiment [4] was 0.0001 to 10 µM in each case.
Turning to `CC(=O)N1C[C@H]2CC[C@@H](C1)[C@@H]2C(F)(F)C(O)c1cc(Cl)cc2cn[nH]c12` (stereo partly drawn) [Compound P-0303, 1-((1R,5S,8s)-8-(2-(5-chloro-1H-indazol-7-yl)-1,1-difluoro-2-hydroxyethyl)-3-azabicyclo[3.2.1]octan-3-yl)ethan-1-one], the IC50 in experiment [1], in experiment [2], in experiment [3] and in experiment [4] was 0.0001 to 10 µM each time.
In the case of `CCS(=O)(=O)N1CCC(C(C)(C)C(O)c2cc(Cl)cc3cn[nH]c23)CC1` (centres unmarked) [Compound P-0304, 1-(5-chloro-1H-indazol-7-yl)-2-(1-(ethylsulfonyl)piperidin-4-yl)-2-methylpropan-1-ol], the IC50 in experiment [1], in experiment [2], in experiment [3] and in experiment [4] was 0.0001 to 10 µM in each case.
On to `CCCS(=O)(=O)N1CCC(C(C)(C)C(O)c2cc(Cl)cc3cn[nH]c23)CC1` (centres unmarked) [Compound P-0305, 1-(5-chloro-1H-indazol-7-yl)-2-methyl-2-(1-(propylsulfonyl)piperidin-4-yl)propan-1-ol], for which the IC50 in experiment [1], in experiment [2], in experiment [3] and in experiment [4] was 0.0001 to 10 µM each time.
In the case of `CC(C)(C1CCN(S(=O)(=O)C2CC2)CC1)C(O)c1cc(Cl)cc2cn[nH]c12` (centres unmarked) [Compound P-0306], the IC50 in experiment [1], in experiment [2], in experiment [3] and in experiment [4] was 0.0001 to 10 µM each time.
For `CC(C)S(=O)(=O)N1CCC(C(C)(C)C(O)c2cc(Cl)cc3cn[nH]c23)CC1` (centres unmarked) [Compound P-0307, 1-(5-chloro-1H-indazol-7-yl)-2-(1-(isopropylsulfonyl)piperidin-4-yl)-2-methylpropan-1-ol], the IC50 in experiment [1], in experiment [2], in experiment [3] and in experiment [4] was 0.0001 to 10 µM throughout.
`CN(C)S(=O)(=O)N1CCC(C(C)(C)C(O)c2cc(Cl)cc3cn[nH]c23)CC1` (centres unmarked) [Compound P-0308, 4-(1-(5-chloro-1H-indazol-7-yl)-1-hydroxy-2-methylpropan-2-yl)-N,N-dimethylpiperidine-1-sulfonamide]: the IC50 in experiment [1], in experiment [2], in experiment [3] and in experiment [4] was 0.0001 to 10 µM each time.
